Legend:
[1] = Compound toxicity, ATPLite total ATP levels; type: cell-based; details: human, HepG2 cells; concentration reducing total ATP levels by 50% relative to no drug controls; ATPLite three days after compound addition
Procedure: Compound toxicity is evaluated by seeding cells at 15,000 cells/well and treating with compound as described above.

[2] = tested on: HBV; test: HepAD38 anti-HBV assay: reduction of viral product accumulation (virion DNA qPCR, HBsAg/HBeAg ELISA); type: cell-based; details: Hepatitis B virus, 120 h; HepAD38 cells; concentration reducing viral product accumulation by 50% relative to no drug controls; harvest five days after compound addition; read-out: HepAD38 EC50
Outline: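 EC50 values reflect 50% reduction, relative to untreated controls, in virion DNA (qPCR) or HBsAg/HBeAg (ELISA) from lysates or supernatants. Washed HepAD38 cells without tetracycline were exposed to compound for 5 days. In the 8-day variant, medium and compound were renewed on days 2 and 5.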

## O=S(=O)(N[C@H]1CC2=C(c3ccn(C(F)F)n3)[C@H](c3ccc(F)cc3Cl)N=C(c3nccs3)N2C1)c1ccc([C@H]2CC[C@H](O)CC2)cc1 [Example 381]
[1]
  CC50 at 3 days: 10 to 25 µM
[2]
  EC50: < 0.1 µM

## CC(C)(O)[C@@H]1CCCN1S(=O)(=O)N[C@H]1CC2=C(c3ccn(C(F)F)n3)[C@H](c3ccc(F)cc3Cl)N=C(c3nccs3)N2C1 [Example 289]
[1]
  CC50 at 3 days: > 25 µM
[2]
  EC50: < 0.1 µM

## N#CCC1(O)CC2=C(c3ccn(C(F)F)n3)[C@H](c3ccc(F)cc3Cl)N=C(c3nccs3)N2C1 (some centres unmarked) [Example 140]
[1]
  CC50 at 3 days: > 25 µM
[2]
  EC50: < 0.1 µM

## CC1(O)CCN(S(=O)(=O)N[C@H]2CC3=C(c4ccn(C(F)F)n4)[C@H](c4ccc(F)cc4Cl)N=C(c4nccs4)N3C2)C1 (some centres unmarked) [Example 282]
[1]
  CC50 at 3 days: > 25 µM
[2]
  EC50: < 0.1 µM

## O=S(=O)(NCCO)N[C@H]1CC2=C(c3ccn(C(F)F)n3)[C@H](c3ccc(F)cc3Cl)N=C(c3nccs3)N2C1 [Example 78]
[1]
  CC50 at 3 days: > 25 µM
[2]
  EC50: < 0.1 µM

## O=S(=O)(N[C@H]1CC2=C(c3ccn(C(F)F)n3)[C@H](c3ccc(F)cc3Cl)N=C(c3nccs3)N2C1)C1(C[C@@H](O)CO)CC1 [Example 424]
[1]
  CC50 at 3 days: > 25 µM
[2]
  EC50: < 0.1 µM

## O=S(=O)(N[C@H]1CC2=C(c3ccn(C(F)F)n3)[C@H](c3ccc(F)cc3Cl)N=C(c3nccs3)N2C1)N1CCC(O)(c2ncco2)CC1 [Example 261]
[1]
  CC50 at 3 days: > 25 µM
[2]
  EC50: < 0.1 µM

## Cc1ccc(S(=O)(=O)N[C@H]2CC3=C(c4ccn(C(F)F)n4)[C@H](c4ccc(F)cc4Cl)N=C(c4nccs4)N3C2)cn1 [Example 401]
[1]
  CC50 at 3 days: > 25 µM
[2]
  EC50: < 0.1 µM

## O=S(=O)(N[C@H]1CC2=C(c3ccn(C(F)F)n3)[C@H](c3ccc(F)cc3Cl)N=C(c3nccs3)N2C1)N[C@H]1CC[C@@H](O)CC1 [Example 154]
[1]
  CC50 at 3 days: > 25 µM
[2]
  EC50: < 0.1 µM

## O=S(=O)(N[C@H]1CC2=C(c3ccn(C(F)F)n3)[C@H](c3ccc(F)cc3Cl)N=C(c3nccs3)N2C1)c1ccc(-c2cccnc2)cn1 [Example 403]
[1]
  CC50 at 3 days: > 25 µM
[2]
  EC50: < 0.1 µM

## O=S(=O)(N[C@H]1CC2=C(c3ccn(C(F)F)n3)[C@H](c3ccc(F)cc3Cl)N=C(c3nccs3)N2C1)[C@H]1CC[C@@H](O)CC1 [Example 99]
[1]
  CC50 at 3 days: > 25 µM
[2]
  EC50: < 0.1 µM

## C[C@]1(NS(=O)(=O)C2CCC(O)(c3ccccn3)CC2)CC2=C(c3ccn(C(F)F)n3)[C@H](c3ccc(F)cc3Cl)N=C(c3nccs3)N2C1 (some centres unmarked) [Example 363]
[1]
  CC50 at 3 days: 10 to 25 µM
[2]
  EC50: < 0.1 µM

## O=S(=O)(N[C@H]1CC2=C(c3ccn(C(F)F)n3)[C@H](c3ccc(F)cc3Cl)N=C(c3nccs3)N2C1)N1CCC(O)(c2ccccn2)CC1 [Example 266]
[1]
  CC50 at 3 days: > 25 µM
[2]
  EC50: < 0.1 µM

## Cn1ccc(C2(O)CCN(S(=O)(=O)N[C@H]3CC4=C(c5ccn(C(F)F)n5)[C@H](c5ccc(F)cc5Cl)N=C(c5nccs5)N4C3)CC2)n1 [Example 304]
[1]
  CC50 at 3 days: > 25 µM
[2]
  EC50: < 0.1 µM

## O=C1NC2(CO1)CN(S(=O)(=O)N[C@H]1CC3=C(c4ccn(C(F)F)n4)[C@H](c4ccc(F)cc4Cl)N=C(c4nccs4)N3C1)C2 [Example 358]
[1]
  CC50 at 3 days: > 25 µM
[2]
  EC50: < 0.1 µM

## O=S(=O)(N[C@H]1CC2=C(c3ccn(C(F)F)n3)[C@H](c3ccc(F)cc3Cl)N=C(c3nccs3)N2C1)C1(c2ccccn2)CC1 [Example 377]
[1]
  CC50 at 3 days: > 25 µM
[2]
  EC50: < 0.1 µM

## O=S(=O)(N[C@H]1CC2=C(c3ccn(C(F)F)n3)[C@H](c3ccc(F)cc3Cl)N=C(c3nccs3)N2C1)N1CCC(O)(c2ncccn2)CC1 [Example 303]
[1]
  CC50 at 3 days: > 25 µM
[2]
  EC50: < 0.1 µM

## CC(C)[C@H](NS(=O)(=O)N[C@H]1CC2=C(c3ccn(C(F)F)n3)[C@H](c3ccc(F)cc3Cl)N=C(c3nccs3)N2C1)c1ccccn1 [Example 342]
[1]
  CC50 at 3 days: > 25 µM
[2]
  EC50: < 0.1 µM

## Cn1ccc(S(=O)(=O)N[C@H]2CC3=C(c4ccn(C(F)F)n4)[C@H](c4ccc(F)cc4Cl)N=C(c4nccs4)N3C2)n1 [Example 394]
[1]
  CC50 at 3 days: > 25 µM
[2]
  EC50: < 0.1 µM

## O=S(=O)(N[C@H]1CC2=C(c3ccn(C(F)F)n3)[C@H](c3ccc(F)cc3Cl)N=C(c3nccs3)N2C1)N1CC[C@H](O)C1 [Example 91]
[1]
  CC50 at 3 days: > 25 µM
[2]
  EC50: < 0.1 µM

## O=S(=O)(N[C@H]1CC2=C(c3ccn(C(F)F)n3)[C@H](c3ccc(F)cc3Cl)N=C(c3nccs3)N2C1)c1ccc(F)cc1F [Example 388]
[1]
  CC50 at 3 days: > 25 µM
[2]
  EC50: < 0.1 µM

## O=S(=O)(NC(c1ccccn1)c1ccccn1)N[C@H]1CC2=C(c3ccn(C(F)F)n3)[C@H](c3ccc(F)cc3Cl)N=C(c3nccs3)N2C1 [Example 361]
[1]
  CC50 at 3 days: > 25 µM
[2]
  EC50: < 0.1 µM

## CS(=O)(=O)c1cccc(S(=O)(=O)N[C@H]2CC3=C(c4ccn(C(F)F)n4)[C@H](c4ccc(F)cc4Cl)N=C(c4nccs4)N3C2)c1 [Example 336]
[1]
  CC50 at 3 days: > 25 µM
[2]
  EC50: < 0.1 µM

## O=S(=O)(N[C@H]1CC2=C(c3ccn(C(F)F)n3)[C@H](c3ccc(F)cc3Cl)N=C(c3nccs3)N2C1)N1CCC[C@H](O)C1 [Example 93]
[1]
  CC50 at 3 days: > 25 µM
[2]
  EC50: < 0.1 µM

## COCCNS(=O)(=O)N[C@H]1CC2=C(c3ccn(C(F)F)n3)[C@H](c3ccc(F)cc3Cl)N=C(c3nccs3)N2C1 [Example 80]
[1]
  CC50 at 3 days: > 25 µM
[2]
  EC50: < 0.1 µM

## O=S(=O)(N[C@H]1CC2=C(c3ccn(C(F)F)n3)[C@H](c3ccc(F)cc3Cl)N=C(c3nccs3)N2C1)N1CC[C@@H](O)C1 [Example 92]
[1]
  CC50 at 3 days: > 25 µM
[2]
  EC50: < 0.1 µM

## O=S(=O)(N[C@H]1CC2=C(c3ccn(C(F)F)n3)[C@H](c3ccc(F)cc3Cl)N=C(c3nccs3)N2C1)C1CCC1 [Example 324]
[1]
  CC50 at 3 days: 10 to 25 µM
[2]
  EC50: < 0.1 µM

## O=S(=O)(CCCCO)N[C@H]1CC2=C(c3ccn(C(F)F)n3)[C@H](c3ccc(F)cc3Cl)N=C(c3nccs3)N2C1 [Example 280]
[1]
  CC50 at 3 days: > 25 µM
[2]
  EC50: < 0.1 µM

## O=C1NC[C@@H](CNC(=O)c2cccc(S(=O)(=O)N[C@H]3CC4=C(c5ccn(C(F)F)n5)[C@H](c5ccc(F)cc5Cl)N=C(c5nccs5)N4C3)c2)O1 [Example 420]
[1]
  CC50 at 3 days: > 25 µM
[2]
  EC50: < 0.1 µM

## O=C1NCCN1C1CCN(S(=O)(=O)N[C@H]2CC3=C(c4ccn(C(F)F)n4)[C@H](c4ccc(F)cc4Cl)N=C(c4nccs4)N3C2)CC1 [Example 294]
[1]
  CC50 at 3 days: > 25 µM
[2]
  EC50: < 0.1 µM

## O=S(=O)(N[C@H]1CC2=C(c3ccn(C(F)F)n3)[C@H](c3ccc(F)cc3Cl)N=C(c3nccs3)N2C1)N1CC(O)(c2ccccn2)C1 [Example 269]
[1]
  CC50 at 3 days: > 25 µM
[2]
  EC50: < 0.1 µM

## O=S(=O)(N[C@H]1CC2=C(c3ccn(C(F)F)n3)[C@H](c3ccc(F)cc3Cl)N=C(c3nccs3)N2C1)N1CCC(O)(C(O)CO)CC1 (some centres unmarked) [Example 96]
[1]
  CC50 at 3 days: > 25 µM
[2]
  EC50: < 0.1 µM

## O=C1OCCN1C1CCN(S(=O)(=O)N[C@H]2CC3=C(c4ccn(C(F)F)n4)[C@H](c4ccc(F)cc4Cl)N=C(c4nccs4)N3C2)CC1 [Example 302]
[1]
  CC50 at 3 days: > 25 µM
[2]
  EC50: < 0.1 µM

## CS(=O)(=O)c1ccc(S(=O)(=O)N[C@H]2CC3=C(c4ccn(C(F)F)n4)[C@H](c4ccc(F)cc4Cl)N=C(c4nccs4)N3C2)cc1 [Example 323]
[1]
  CC50 at 3 days: 10 to 25 µM
[2]
  EC50: < 0.1 µM

## O=C(O)[C@H]1CC[C@H](c2ccc(S(=O)(=O)N[C@H]3CC4=C(c5ccn(C(F)F)n5)[C@H](c5ccc(F)cc5Cl)N=C(c5nccs5)N4C3)cc2)CC1 [Example 426]
[1]
  CC50 at 3 days: > 25 µM
[2]
  EC50: < 0.1 µM

## O=S(=O)(N[C@H]1CC2=C(c3ccn(C(F)F)n3)[C@H](c3ccc(F)cc3Cl)N=C(c3nccs3)N2C1)N[C@H]1CC[C@H](O)CC1 [Example 155]
[1]
  CC50 at 3 days: > 25 µM
[2]
  EC50: < 0.1 µM

## O=S(=O)(N[C@H]1CC2=C(c3ccn(C(F)F)n3)[C@H](c3ccc(F)cc3Cl)N=C(c3nccs3)N2C1)N1CCC[C@@H](O)C1 [Example 94]
[1]
  CC50 at 3 days: > 25 µM
[2]
  EC50: < 0.1 µM

## O=S(=O)(N[C@H]1CC2=C(c3ccn(C(F)F)n3)[C@H](c3ccc(F)cc3Cl)N=C(c3nccs3)N2C1)[C@H]1CC[C@H](O)CC1 [Example 98]
[1]
  CC50 at 3 days: > 25 µM
[2]
  EC50: < 0.1 µM

## O=S(=O)(N[C@H]1CC2=C(c3ccn(C(F)F)n3)[C@H](c3ccc(F)cc3Cl)N=C(c3nccs3)N2C1)N1CCC(CO)CC1 [Example 88]
[1]
  CC50 at 3 days: > 25 µM
[2]
  EC50: < 0.1 µM

## O=S(=O)(N[C@H]1CC2=C(c3ccn(C(F)F)n3)[C@H](c3ccc(F)cc3Cl)N=C(c3nccs3)N2C1)c1ccc([C@H]2CC[C@](O)(c3ccccn3)CC2)cc1 [Example 385]
[1]
  CC50 at 3 days: > 25 µM
[2]
  EC50: < 0.1 µM

## O=S(=O)(N[C@H]1CC2=C(c3ccn(C(F)F)n3)[C@H](c3ccc(F)cc3Cl)N=C(c3nccs3)N2C1)N1CCC(F)(F)C1 [Example 276]
[1]
  CC50 at 3 days: < 10 µM
[2]
  EC50: < 0.1 µM

## O=S(=O)(N[C@H]1CC2=C(c3ccn(C(F)F)n3)[C@H](c3ccc(F)cc3Cl)N=C(c3nccs3)N2C1)[C@H]1C[C@](O)(c2ccccn2)C1 [Example 371]
[1]
  CC50 at 3 days: 10 to 25 µM
[2]
  EC50: < 0.1 µM

## O=S(=O)(N[C@H]1CC2=C(c3ccn(C(F)F)n3)[C@H](c3ccc(F)cc3Cl)N=C(c3nccs3)N2C1)c1ccc(S(=O)(=O)C(F)F)cc1 [Example 340]
[1]
  CC50 at 3 days: > 25 µM
[2]
  EC50: < 0.1 µM

## CS(=O)(=O)C1CN(S(=O)(=O)N[C@H]2CC3=C(c4ccn(C(F)F)n4)[C@H](c4ccc(F)cc4Cl)N=C(c4nccs4)N3C2)C1 [Example 337]
[1]
  CC50 at 3 days: > 25 µM
[2]
  EC50: < 0.1 µM

## O=S1(=O)CCN(S(=O)(=O)N[C@H]2CC3=C(c4ccn(C(F)F)n4)[C@H](c4ccc(F)cc4Cl)N=C(c4nccs4)N3C2)CC1 [Example 150]
[1]
  CC50 at 3 days: > 25 µM
[2]
  EC50: < 0.1 µM

## O=S(=O)(N[C@H]1CC2=C(c3ccn(C(F)F)n3)[C@H](c3ccc(F)cc3Cl)N=C(c3nccs3)N2C1)N1CCC(O)(c2nccs2)CC1 [Example 260]
[1]
  CC50 at 3 days: > 25 µM
[2]
  EC50: < 0.1 µM
